Data reported in the supplement of paper PMC10307832.

What was measured:
[1] = compound: C[C@]1(O)C[C@@H](c2nc(-c3ccc4ccc(-c5ccccc5)nc4c3)c3c(N)nccn32)C1 [Linsitinib]; experiment: relative viability (nuclei count vs DMSO), 5 days (fraction); higher = more cells survive
Method in brief: (§1)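 Viability was defined as treated-well nuclei divided by vehicle-well nuclei, with the median taken over replicate plates. Cells from lung cancer lines sat overnight at 37 °C in 1536-well plates, received five √10-spaced library-drug doses by pinning on vehicle-anchored plates, and grew 5 days without medium change before one-step fixation, permeabilisation and Hoechst staining, 4× imaging and MetaXpress nuclear counts. Only plates with control CV under 25% and at least one doubling were kept.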

[2] = compound: Cc1ccc(C(=O)N(CCCN)[C@@H](c2nc3cc(Cl)ccc3c(=O)n2Cc2ccccc2)C(C)C)cc1 [Ispinesib]; experiment: as above
Method in brief: as §1

Cell Line	relative viability ([1]; 0.01 µM)	relative viability ([1]; 0.03162 µM)	relative viability ([1]; 0.1 µM)	relative viability ([1]; 0.3162 µM)	relative viability ([1]; 1 µM)	relative viability ([1]; 1 µM, anchor plate)	relative viability ([2]; 0.001 µM)	relative viability ([2]; 0.003162 µM)	relative viability ([2]; 0.01 µM)	relative viability ([2]; 0.03162 µM)	relative viability ([2]; 0.1 µM)
NCI-H2023	0.912	0.668	0.949	0.649	0.618	0.687	1.08	0.961	1.06	0.387	0.177
Calu-6	0.946	0.892	1.01	0.862	0.857	0.96	1.15	0.996	0.689	0.18	0.19
NCI-H522	0.969	0.927	0.838	0.742	0.872	–	0.965	1.13	1	0.815	0.48
HOP-62	1	1.07	1.09	–	0.791	1.02	1.06	1.07	1.26	0.967	0.338
H3255	0.872	0.933	0.927	0.74	0.896	0.972	0.999	1.15	1.02	0.701	0.335
NCI-H1734	1.06	1.04	0.88	0.674	0.721	0.862	0.971	1.01	1.09	0.612	0.262
SK-MES-1	0.962	1.01	1.01	0.811	0.874	1.05	1.06	1.11	1.06	0.56	0.252
NCI-H1792	0.932	0.897	0.712	0.455	0.33	0.571	1.18	1.31	0.995	0.492	0.329
EKVX	0.99	0.991	0.999	0.739	0.832	1.01	0.996	0.993	1.07	0.856	0.573
EPLC-272H	1.02	1.01	0.799	–	0.879	1.19	0.868	1.04	0.909	0.342	0.151
LK-2	0.994	1.09	0.919	0.594	0.744	0.6	1.13	1.19	1.17	0.705	0.348
CAL-12T	1.01	0.917	0.951	0.752	0.879	0.839	1.05	1.13	1.1	0.664	0.18
NCI-H322M	0.954	0.993	0.95	0.814	0.701	0.95	1.13	0.945	0.914	0.472	0.58
NCI-H1650	0.917	0.894	0.926	0.477	0.665	–	1.07	1.02	0.912	0.261	0.196
NCI-H1648	1.11	0.972	0.868	0.345	0.8	–	1.02	1.13	0.792	1.14	0.387
SW 1573	1.04	1.01	0.98	0.796	0.723	0.801	1.01	0.973	1.1	0.666	0.343

Cell Line	relative viability ([1]; 0.01 µM)	relative viability ([1]; 0.03162 µM)	relative viability ([1]; 0.1 µM)	relative viability ([1]; 0.3162 µM)	relative viability ([1]; 1 µM)	relative viability ([1]; 1 µM, anchor plate)	relative viability ([2]; 0.001 µM)	relative viability ([2]; 0.003162 µM)	relative viability ([2]; 0.01 µM)	relative viability ([2]; 0.03162 µM)	relative viability ([2]; 0.1 µM)
NCI-H2405	0.93	0.966	1	0.821	0.678	0.891	1.05	1.05	1.05	0.884	0.561
LCLC-103H	1.01	0.89	0.976	0.823	0.879	1.06	1.05	1.07	1.04	0.691	0.601
HCC-44	0.964	0.967	0.96	0.668	0.659	0.702	0.974	1.07	1.04	0.883	0.186
RERF-LC-KJ	1	1.01	0.949	0.682	0.871	0.878	1.04	0.975	1.03	0.684	0.331
NCI-H1975	0.939	0.927	0.869	0.835	0.775	0.984	1	0.952	1	0.742	0.184
IA-LM	1.01	0.983	0.824	0.802	0.646	0.619	1.02	1.15	1.22	0.952	0.197
LCLC-97TM1	0.901	1.01	0.99	0.329	0.477	0.186	1.02	0.964	1.18	0.6	0.132
NCI-H520	0.97	0.948	1.06	–	1.02	0.951	0.977	0.997	0.903	0.341	0.251
A-427	1.02	1.11	0.985	–	0.858	1.13	1.05	1.11	0.955	0.261	0.246
ABC-1	0.88	0.789	0.993	0.617	0.533	0.859	1.01	1.01	0.979	0.314	0.367
NCI-H460	0.966	0.927	0.977	0.872	0.949	0.789	1.03	1.03	1.14	0.935	0.0826
NCI-H1395	0.935	0.79	1.03	0.806	0.893	1.17	0.95	1.06	0.854	0.44	0.354
EBC-1	0.991	0.967	1.05	0.778	0.93	0.903	1.03	1.13	1.03	0.336	0.231
NCI-H23	1.06	0.862	0.903	0.509	0.578	0.631	0.859	1.06	1.04	0.298	0.226
LOU-NH91	0.873	0.943	0.991	1	0.801	0.942	0.962	1.09	1.05	0.646	0.287
NCI-H2009	0.974	0.994	1.06	0.669	0.979	1.18	1.03	1.02	1.04	0.606	0.481
